Reference: ChEMBL document CHEMBL1129215, “(Dipropylamino)-tetrahydronaphthofurans: centrally acting serotonin agonists and dopamine agonists-antagonists” (Bioorg Med Chem Lett, 1997)
Calls of active or inactive are those of the source. The rule behind the calls is not given here.

Columns and labels:
[1] = target: T1, 5-hydroxytryptamine receptor 1A (Homo sapiens, UniProt P08908); experiment: Tested in vitro for the inhibition of [3H]8-OH-DPAT binding to 5-hydroxytryptamine 1A receptor, expressed in cloned CHO cells.; format: cell-based
T1 sequence (P08908 whole entry): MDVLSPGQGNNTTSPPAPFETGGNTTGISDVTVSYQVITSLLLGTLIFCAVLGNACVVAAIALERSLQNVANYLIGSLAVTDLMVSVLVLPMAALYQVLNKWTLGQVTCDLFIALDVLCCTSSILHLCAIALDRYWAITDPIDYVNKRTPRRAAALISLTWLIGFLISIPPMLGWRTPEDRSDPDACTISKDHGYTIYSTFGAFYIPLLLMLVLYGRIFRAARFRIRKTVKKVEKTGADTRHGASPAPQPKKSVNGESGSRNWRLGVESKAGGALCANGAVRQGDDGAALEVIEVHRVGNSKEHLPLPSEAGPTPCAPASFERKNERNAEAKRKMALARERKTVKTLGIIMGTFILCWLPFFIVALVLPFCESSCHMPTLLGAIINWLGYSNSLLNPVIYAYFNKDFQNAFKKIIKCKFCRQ

[2] = target: T2, D(4) dopamine receptor (Homo sapiens) (UniProt P21917); experiment: (§1) Tested in vitro for the inhibition of [3H]spiperone binding to Dopamine receptor D4, expressed in cloned CHO cells; Inactive; format: cell-based
T2 sequence (whole entry): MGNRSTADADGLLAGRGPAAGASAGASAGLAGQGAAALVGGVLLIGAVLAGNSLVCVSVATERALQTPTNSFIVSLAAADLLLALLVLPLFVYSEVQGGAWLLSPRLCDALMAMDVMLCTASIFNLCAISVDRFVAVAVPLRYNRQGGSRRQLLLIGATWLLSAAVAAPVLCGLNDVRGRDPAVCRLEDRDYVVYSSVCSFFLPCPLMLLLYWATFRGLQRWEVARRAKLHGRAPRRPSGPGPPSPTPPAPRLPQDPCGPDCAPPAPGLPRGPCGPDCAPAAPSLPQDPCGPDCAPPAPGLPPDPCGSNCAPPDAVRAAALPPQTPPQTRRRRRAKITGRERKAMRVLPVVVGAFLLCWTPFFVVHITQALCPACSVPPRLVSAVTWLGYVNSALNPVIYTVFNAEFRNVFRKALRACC

D(2) dopamine receptor = D(2) dopamine receptor (Rattus norvegicus, UniProt P61169); experiment: Tested in vitro for the inhibition of [3H]raclopride binding to Dopamine receptor D2 in rat striatum; format: tissue-based
Sequence of D(2) dopamine receptor (P61169 whole entry): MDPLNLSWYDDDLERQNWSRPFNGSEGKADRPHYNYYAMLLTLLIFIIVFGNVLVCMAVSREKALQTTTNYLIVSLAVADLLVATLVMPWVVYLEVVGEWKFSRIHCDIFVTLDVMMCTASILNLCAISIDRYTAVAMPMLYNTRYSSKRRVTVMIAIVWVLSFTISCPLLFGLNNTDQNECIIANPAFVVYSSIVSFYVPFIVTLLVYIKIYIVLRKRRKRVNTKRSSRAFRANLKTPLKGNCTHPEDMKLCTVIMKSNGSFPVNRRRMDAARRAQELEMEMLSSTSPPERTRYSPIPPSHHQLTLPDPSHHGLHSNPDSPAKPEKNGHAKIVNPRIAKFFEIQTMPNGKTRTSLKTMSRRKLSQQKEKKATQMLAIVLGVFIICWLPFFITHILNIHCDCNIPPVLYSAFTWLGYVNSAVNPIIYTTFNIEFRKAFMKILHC

Rattus norvegicus [3] = experiment: The compound was evaluated in vivo for the 5-HTP accumulation at hemispheres in reserpine pretreated rats; format: functional
Rattus norvegicus [4] = experiment: The compound was evaluated in vivo for the 5-HTP accumulation at limbic regions; format: functional; conditions: Limbic system
Rattus norvegicus [5] = experiment: The compound was evaluated in vivo for the DOPA accumulation at corpus striatum; format: functional
Rattus norvegicus [6] = experiment: The compound was evaluated in vivo for the DOPA accumulation at hemispheres in reserpine pretreated rats at 50 umol/kg; Inactive; format: functional, organism-based
Rattus norvegicus [7] = experiment: The compound was evaluated in vivo for the DOPA accumulation at limbic regions; format: functional; conditions: Limbic system
Rattus norvegicus [8] = experiment: The compound was evaluated in vivo for the 5-HTP accumulation at corpus striatum; format: functional
D(3) dopamine receptor = D(3) dopamine receptor (Homo sapiens, UniProt P35462); experiment: biochemical
Sequence of D(3) dopamine receptor (P35462 whole entry): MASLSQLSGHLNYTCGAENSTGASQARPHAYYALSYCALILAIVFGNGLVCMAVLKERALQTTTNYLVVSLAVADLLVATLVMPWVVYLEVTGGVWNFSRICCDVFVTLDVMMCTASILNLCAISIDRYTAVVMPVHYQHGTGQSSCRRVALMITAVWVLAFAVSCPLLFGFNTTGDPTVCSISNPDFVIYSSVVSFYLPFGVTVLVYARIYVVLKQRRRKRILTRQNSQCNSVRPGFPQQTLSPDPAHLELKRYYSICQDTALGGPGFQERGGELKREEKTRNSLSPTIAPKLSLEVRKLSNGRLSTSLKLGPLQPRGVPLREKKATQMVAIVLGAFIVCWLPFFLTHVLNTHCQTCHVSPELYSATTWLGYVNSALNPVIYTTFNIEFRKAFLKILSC
Description: Tested in vitro for the inhibition of [3H]U-86170 binding to Dopamine receptor D3, expressed in cloned CHO cells

[9] = target: Serotonin 2 (5-HT2) receptor (Homo sapiens, UniProt P41595+P28223+P28335); experiment: Tested in vitro for the inhibition of [3H]ketanserin binding to 5-hydroxytryptamine 2 receptor, expressed in cloned CHO cells.; format: cell-based
D(4) dopamine receptor [10] = target: T3, D(4) dopamine receptor (Homo sapiens, UniProt P21917); experiment: Tested in vitro for the inhibition of [3H]spiperone binding to Dopamine receptor D4, expressed in cloned CHO cells; format: cell-based
T3 sequence (P21917 whole entry): T2 sequence (whole entry)

Rattus norvegicus [11] = experiment: The compound was evaluated in vivo for the 5-HTP accumulation at corpus striatum at 50 umol/kg; Inactive; format: functional, organism-based
Rattus norvegicus [12] = experiment: The compound was evaluated in vivo for the 5-HTP accumulation at hemispheres in reserpine pretreated rats at 50 umol/kg; Inactive; format: functional, organism-based
Rattus norvegicus [13] = experiment: The compound was evaluated in vivo for the 5-HTP accumulation at limbic regions at 50 umol/kg; Inactive; format: functional, organism-based; conditions: Limbic system
Rattus norvegicus [14] = experiment: The compound was evaluated in vivo for the 5-HTP accumulation at hemispheres in reserpine pretreated rats at 11 umol/kg; inactive in highest dose tested; format: functional, organism-based
Rattus norvegicus [15] = experiment: The compound was evaluated in vivo for the 5-HTP accumulation at limbic regions at 11 umol/kg; inactive in highest dose tested; format: functional, organism-based; conditions: Limbic system
Rattus norvegicus [16] = experiment: The compound was evaluated in vivo for the DOPA accumulation at hemispheres in reserpine pretreated rats at 11 umol/kg; inactive in highest dose tested; format: functional, organism-based
Rattus norvegicus [17] = experiment: The compound was evaluated in vivo for the 5-HTP accumulation at corpus striatum at 11 umol/kg; inactive in highest dose tested; format: functional, organism-based
Rattus norvegicus [18] = experiment: The compound was evaluated in vivo for the DOPA accumulation at corpus striatum in non-pretreated rats at 50 umol/kg dose; format: functional
Rattus norvegicus [19] = experiment: The compound was evaluated in vivo for the DOPA accumulation at limbic regions at 50 umol/kg dose; format: functional, Limbic system
Rattus norvegicus [20] = experiment: The compound was evaluated in vivo for the locomotpr activity in non-pretreated rats at 50 uM/kg dose; format: functional
D(4) dopamine receptor [21] = target: T3, D(4) dopamine receptor; experiment: as §1; format: cell-based
Rattus norvegicus [22] = experiment: The compound was evaluated in vivo for the DOPA accumulation at hemispheres in reserpine pretreated rats at 50 umol/kg; inactive in the highest dose tested; format: functional, organism-based
Rattus norvegicus [23] = experiment: The compound was evaluated in vivo for the DOPA accumulation at limbic regions at 50 umol/kg; Partial effects in the highest dose tested; format: functional, organism-based; conditions: Limbic system
Rattus norvegicus [24] = experiment: The compound was evaluated in vivo for the DOPA accumulation at corpus striatum at 50 umol/kg; Partial effects in the highest dose tested; format: functional, organism-based
Rattus norvegicus [25] = experiment: The compound was evaluated in vivo for the locomotor activity in non-pretreated rats at 50 uM/kg dose; format: functional
Rattus norvegicus [26] = experiment: The compound was evaluated in vivo for the DOPA accumulation at corpus striatum at 12.5 umol/kg; Partial effects in the highest dose tested; format: functional, organism-based
Rattus norvegicus [27] = experiment: The compound was evaluated in vivo for the DOPA accumulation at hemispheres in reserpine pretreated rats at 12.5 umol/kg; Inactive; format: functional, organism-based
Rattus norvegicus [28] = experiment: The compound was evaluated in vivo for the DOPA accumulation at limbic regions at 12.5 umol/kg; Inactive; format: functional, organism-based; conditions: Limbic system
Rattus norvegicus [29] = experiment: The compound was evaluated in vivo for the DOPA accumulation at corpus striatum; partial effect at highest dose of 45 umol/kg; format: functional, organism-based
Rattus norvegicus [30] = experiment: The compound was evaluated in vivo for the DOPA accumulation at hemispheres in reserpine pretreated rats; partial effect at highest dose of 45 umol/kg; format: functional, organism-based
Rattus norvegicus [31] = experiment: The compound was evaluated in vivo for the DOPA accumulation at limbic regions; partial effect at highest dose of 45 umol/kg; format: functional, organism-based; conditions: Limbic system
Rattus norvegicus [32] = experiment: The compound was evaluated in vivo for the 5-HTP accumulation at corpus striatum at 13.5 umol/kg; inactive in highest dose tested; format: functional, organism-based
Rattus norvegicus [33] = experiment: The compound was evaluated in vivo for the 5-HTP accumulation at hemispheres in reserpine pretreated rats at 13.5 umol/kg; inactive in highest dose tested; format: functional, organism-based
Rattus norvegicus [34] = experiment: The compound was evaluated in vivo for the 5-HTP accumulation at limbic regions at 13.5 umol/kg; inactive in highest dose tested; format: functional, organism-based; conditions: Limbic system
Rattus norvegicus [35] = experiment: The compound was evaluated in vivo for the DOPA accumulation at hemispheres in reserpine pretreated rats at 13.5 umol/kg; inactive in highest dose tested; format: functional, organism-based

Compound | Ki [1] [nM] | Ki (D(2) dopamine receptor) [nM] | ED50 (Rattus norvegicus [3]) [µmol/kg] | ED50 (Rattus norvegicus [4]) [µmol/kg] | ED50 (Rattus norvegicus [5]) [µmol/kg] | ED50 (Rattus norvegicus [7]) [µmol/kg] | ED50 (Rattus norvegicus [8]) [µmol/kg] | Ki (D(3) dopamine receptor) [nM] | Ki [9] [nM] | Ki (D(4) dopamine receptor [10]) [nM] | also measured
CCCN(CCC)C1CCc2ccc3occc3c2C1 (centres undefined) | 7.8 | 64 | 6.08 | 4.56 | 13.1 | 4.47 | 2.12 | 45 | – | – | ED50 [2]: inactive; ED50 (Rattus norvegicus [6]): inactive
CCCN1CC[C@H]2c3c(O)cccc3CC[C@H]21 | – | 769 | – | – | – | – | – | > 4760 | 1637 | > 4070 | –
CCCN(CCC)C1CCc2c(ccc3ccoc23)C1 (centres undefined) | 210 | 18 | – | – | 0.98 | 0.74 | – | 56 | – | – | ED50 [2]: inactive; ED50 (Rattus norvegicus [11]): inactive; ED50 (Rattus norvegicus [12]): inactive; ED50 (Rattus norvegicus [13]): inactive; ED50 (Rattus norvegicus [6]): inactive
CCCN(CCC)C1CCc2ccc(O)cc2C1 (centres undefined) | 47 | – | – | – | 0.03 | 0.027 | – | – | – | 148 | ED50 (Rattus norvegicus [14]): inactive; ED50 (Rattus norvegicus [15]): inactive; ED50 (Rattus norvegicus [16]): inactive; ED50 (Rattus norvegicus [17]): inactive
CCCN(CCC)[C@@H]1CCc2c(ccc3ccoc23)[C@@H]1C | 120 | 46 | – | – | – | – | – | 27 | 70 | 55 | Saline control (Rattus norvegicus [18]): 161%; Saline control (Rattus norvegicus [19]): 121%; Saline control (Rattus norvegicus [20]): 107%
CCCN(CCC)C1CCc2ccc3ccoc3c2C1 (centres undefined) | 6.1 | 32 | 2.26 | 3.24 | – | – | 3.18 | 16.2 | – | – | Ki (D(4) dopamine receptor [21]): Not Active; Activity (Rattus norvegicus [22]): inactive; Activity (Rattus norvegicus [23]): Weak activity; Activity (Rattus norvegicus [24]): Weak activity
CCCN(CCC)[C@@H]1CCc2c(OC)cccc2[C@@H]1C | – | 15 | – | – | – | – | – | – | – | – | Saline control (Rattus norvegicus [18]): 370%; Saline control (Rattus norvegicus [19]): 245%; Saline control (Rattus norvegicus [25]): 70%
CCCN1CC[C@H]2c3c(ccc4ccoc34)CC[C@H]21 | 3.9 | 150 | 0.66 | 0.41 | – | – | 0.4 | 323 | 146 | > 4070 | Activity (Rattus norvegicus [26]): Weak activity; ED50 (Rattus norvegicus [27]): inactive; ED50 (Rattus norvegicus [28]): inactive
CCCN(CCC)C1CCc2cccc(O)c2C1 (centres undefined) [8-OH-DPAT] | – | – | 0.052 | 0.052 | – | – | 0.063 | – | – | > 1520 | Activity (Rattus norvegicus [29]): Weak activity; Activity (Rattus norvegicus [30]): Weak activity; Activity (Rattus norvegicus [31]): Weak activity
CCCN(CCC)C1CCc2c(O)cccc2C1 (centres undefined) [5-OH-DPAT] | 344 | – | – | – | 0.009 | 0.011 | – | – | – | – | ED50 (Rattus norvegicus [32]): inactive; ED50 (Rattus norvegicus [33]): inactive; ED50 (Rattus norvegicus [34]): inactive; ED50 (Rattus norvegicus [35]): inactive
